According to paper PMC8398766, “Do Small Molecules Activate the TrkB Receptor in the Same Manner as BDNF? Limitations of Published TrkB Low Molecular Agonists and Screening for Novel TrkB Orthosteric Agonists” (Pharmaceuticals, 2021):
“Also recorded” adds a separate entry of the source. Read-outs that look alike come from different tables or passages of the source. One block for each compound: values may come before it.

Key:
in vivo = format: in vivo, BALB/c mice
Experimental: The animals were obtained from the Center of Experimental Medicine (University of Bialystok, Bialystok, Poland) and housed under standard laboratory conditions. Mice had unlimited access to water and food. All the procedures were conducted according to the guidelines of the local ethical commission (appl no. 06/2019, perm. no 10/2019). […] Four animals per time point were sacrificed at 10 min, 30 min, 1 h, 2 h, and 4 h after per os administration and 5 min, 10 min, 30 min, 1 h, and 2 h after i.v. administration. The blood (0.5 mL) was collected by heart puncture using probes with anticoagulants (K2EDTA). Plasma samples were obtained by blood centrifugation (15 min, 3000× g at 23 °C). The whole brain was dissected from the skull and washed with cold 0.9% NaCl on ice. The left hemisphere was quickly frozen in liquid nitrogen and stored at −80 °C for further bioanalytical analysis. From the right hemisphere, the hippocampus and frontal cortex were isolated, weighed, and stored at −80 °C after freezing in liquid nitrogen. Isolated structures were homogenized in N-PER cocktail (10 μL for every 1 mg of tissue) using a hand homogenizer, and then processed as described in Section 4.3.3.
For bioanalytical evaluation, brain samples were homogenized in water (3 mL for every 1 g of brain tissue). Plasma and brain samples were then prepared by precipitating proteins and extracting analytes using acetonitrile with the addition of the internal standard: 150 μL of extraction solution was added to 50 μL of biological material, mixed for 1 min and centrifuged (12,900 RPM, 4 min, 4 °C), and the supernatant was collected for analysis. Standard solutions including calibration standards and quality control samples were prepared by spiking 45 μL of biological material with 5 μL of standard working solution, adding 150 μL of extraction solution, and then mixing, centrifuging, and collecting the supernatant for analysis. The concentrations of analytes in the plasma and brain samples were determined using a UPLC-MS/MS instrument (Agilent Technologies) and chromatographic columns (Agilent Zorbax Eclipse 50 × 2.1 mm; 1.7 μm).

in vitro [1] = details: PAMPA, pH 7.4
[2] = tested on: TrkB receptor and downstream proteins (PLCγ1, Akt1, ERK1/2); experiment: Pharmacodynamics: immunoblot of hippocampus and frontal cortex; format: in vivo, BALB/c mice; details: 30 min and 2 h after 50 mg/kg p.o.
Experimental: Compound treatment was stopped by lysing cells with N-PER™ Neuronal Protein Extraction Reagent (Thermo Fisher Scientific) containing 1 × PhosSTOP™ (Roche, Basel, Switzerland), 1 × Halt Protease Inhibitor Single-Use Cocktail (ThermoFisher Scientific) and 5 mM EDTA. The lysates were collected by scraping, and centrifuged (8000× g; 10 min at 4 °C), and the protein concentration was determined using a BCA Pierce kit (ThermoFisher Scientific). The lysates were stored at −80 °C until further processing. Samples containing 20 μg of protein were further denatured in 4 × Laemli Buffer with 5% β-mercaptoethanol at 95 °C for 5 min and electrophoresed on gels prepared using a 10% TGX Stain-Free™ FastCast™ Acrylamide Kit (Bio-Rad). Afterwards, the proteins were transferred (wet transfer, 100 V, 60 min) onto nitrocellulose membranes (GE Healthcare, Chicago, IL, USA), which were blocked in 5% BSA in TBS-T (TBS + 0.1% Tween20) for 2 h. […] After repeated washes (TBS-T), the proteins were detected with HRP-conjugated anti-rabbit antibodies (1:4000, RT, 2 h) (Cell Signaling Technology), and the blots were incubated with Clarity Max ECL Western Blotting Substrate (Bio-Rad). Blot images and chemiluminescence signals were captured using a ChemiDoc MP Imaging System, and densitometry values were calculated using the Image Lab software (Bio-Rad). […]

in vitro [3] = details: mouse, microsomes
PAMPA = details: 10 μM, 4 h
[4] = male, BALB/c, mouse, in vivo, po, 50 mg/kg

SMILES: O=c1cc(-c2ccccc2)oc2c(O)c(O)ccc12 [7,8-DHF, 7,8-dihydroxyflavone]
Detection in plasma or brain samples (in vivo; 7,8-DHF i.v. 1 mg/kg): not detectable
C brain, individual mice (in vivo; 7,8-DHF i.v. 1mg/kg, 5min): < LLQ
C plasma, individual mice (in vivo; 7,8-DHF i.v. 1mg/kg, 5min): < LLQ
C brain, individual mice (in vivo; 7,8-DHF i.v. 1mg/kg, 10 min): < LLQ
C plasma, individual mice (in vivo; 7,8-DHF i.v. 1mg/kg, 10 min): < LLQ
C brain, individual mice (in vivo; 7,8-DHF i.v. 1mg/kg, 30 min): < LLQ
C plasma, individual mice (in vivo; 7,8-DHF i.v. 1mg/kg, 30 min): < LLQ
C brain, individual mice (in vivo; 7,8-DHF i.v. 1mg/kg, 1h): < LLQ
C plasma, individual mice (in vivo; 7,8-DHF i.v. 1mg/kg, 1h): < LLQ
C brain, individual mice (in vivo; 7,8-DHF i.v. 1mg/kg, 2h): < LLQ
C plasma, individual mice (in vivo; 7,8-DHF i.v. 1mg/kg, 2h): < LLQ
C plasma, individual mice (in vivo; 7,8-DHF p.o 50mg/kg, 1h): < LLQ
C brain, individual mice (in vivo; 7,8-DHF p.o 50mg/kg, 4h): < LLQ
C plasma, individual mice (in vivo; 7,8-DHF p.o 50mg/kg, 4h): < LLQ
Brain concentration relative to plasma (in vivo; 7,8-DHF p.o. 50 mg/kg): 10 fold lower
Time at which plasma concentration fell under the detection limit (in vivo; 7,8-DHF p.o. 50 mg/kg): 1 h
AUC (in vivo; [4]): 20.9 ng·h/mL
Time of maximal plasma concentration (in vivo; [4]): 10 min
Tmax (in vivo; [4]): 9.6 min
Cmax (in vivo; male, BALB/c, mouse, in vivo, po, 50 mg/kg, brain, 7,8-DHF p.o. 50 mg/kg, read-out: Cmax): 6.35 ng/g
Cmax (in vivo; male, BALB/c, mouse, in vivo, po, 50 mg/kg, plasma, 7,8-DHF p.o. 50 mg/kg, read-out: Cmax): 77.4 ng/mL
Cmax (in vivo; plasma, 7,8-DHF p.o. 50 mg/kg, 50 mg/kg): 72.42 ng/mL
Papp at 4 h, 10 μM (in vitro [1]): 15.8 ×10⁻⁶ cm/s
Activation of the TrkB receptor (phosphorylation) [2]: did not observe any activation; also recorded: no effect
PLCγ1, Akt1, and ERK1/2 phosphorylation [2]: no impact
microsomal CLint at 1 μM (in vitro [3]): 21.3 µL/min/mg

PAMPA (PAMPA): 6.93 10^−6·cm/s
SMILES: C=CC(C)(C)c1[nH]c2ccccc2c1C1=C(O)C(=O)C(c2c[nH]c3c(CC=C(C)C)cccc23)=C(O)C1=O [DMAQ-B1]
